Laboratory results as given in patent US10286038B2, “Lysosome membrane protein 2 (LIMP-2) based peptides and related uses” (Northwestern University, priority 2016, dated 2019).

What was measured:
[1] = biological target: T1, recombinant GC (Cerezyme) (Homo sapiens, UniProt P04062, R534H); assay: peptide pulldown of recombinant GC; format: binding; conditions: biotinylated peptide, tenfold molar amount, neutral pH, streptavidin beads
T1 construct: purchased Genzyme Therapeutics, Boston, USA
T1 sequence (P04062 40-536 R534H): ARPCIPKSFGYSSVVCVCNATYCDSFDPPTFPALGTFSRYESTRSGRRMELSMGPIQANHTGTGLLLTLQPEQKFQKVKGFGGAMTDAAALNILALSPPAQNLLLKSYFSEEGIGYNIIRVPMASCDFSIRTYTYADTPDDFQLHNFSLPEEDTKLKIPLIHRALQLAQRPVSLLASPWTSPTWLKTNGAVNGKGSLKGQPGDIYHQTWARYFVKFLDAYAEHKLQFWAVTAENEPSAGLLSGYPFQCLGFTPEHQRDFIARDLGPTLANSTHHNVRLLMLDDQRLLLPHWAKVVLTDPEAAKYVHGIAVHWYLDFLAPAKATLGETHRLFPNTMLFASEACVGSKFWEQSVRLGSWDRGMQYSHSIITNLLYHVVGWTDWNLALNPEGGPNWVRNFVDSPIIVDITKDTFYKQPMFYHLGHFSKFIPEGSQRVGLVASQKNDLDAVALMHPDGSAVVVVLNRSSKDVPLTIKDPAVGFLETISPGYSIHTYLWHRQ
Method: (§1) Expression plasmids of LIMP-2 and human GC constructs were generated as described previously (1). For Western blotting nitrocellulose or PVDF membranes were used. EndoH/PNGaseF digests were performed according to manufacturer's instructions (New England Biolabs, Ipswich, USA). For co-immunoprecipitation experiments magnetic agarose G beads (Thermo Fisher Scientific, Waltham, USA) were utilized. Immunofluorescence studies were performed in cells as previously described (1, 3). Cellular co-localization of two proteins was determined by the Pearson's Index (35). Enzyme activity assays of cell lysates or recombinant protein were measured at acid pH using absorbent and fluorescent artificial substrates. For peptide studies, peptides were N-terminally tagged with biotin. If not stated otherwise, recombinant enzyme was incubated with a tenfold higher molarity of peptides. Conditions for pulldown experiments were kept at neutral pH. Protein modelling, molecular analyses, graphics and animations were performed with the UCSF Chimera package.
All peptides were purchased from jpt Peptide Technologies (Berlin, GER). […] The concentration of the peptides as well as the recombinant proteins was determined spectroscopically (Nanodrop 2000c; Thermo Fisher Scientific, Waltham, USA). […]

[2] = biological target: bovine serum albumin (BSA) (Bos taurus, UniProt P02769); assay: peptide pulldown of albumin (BSA); format: binding; conditions: neutral pH
Method: FIG. 6: Characterization of a helical LIMP-2-derived peptide. […] B) In vitro peptide pulldown assay: helix 5 peptides were incubated with recombinant LAMAN and bovine serum albumin (BSA). INPUT and BOUND fractions were loaded onto SDS-PAGE and proteins visualized by coomassie staining (CBB). C) Densitometry of LAMAN and BSA protein bound to peptide, normalized to protein fraction bound to beads only (buffer; n=2-3). D) and E) Activity assay of recombinant (D) GC and (E) LAMAN incubated with different excess molarities (1×-10×) of helix 5 peptide (n=β-5) and LIMP-2 ectodomain (n=4). GC activities were normalized and statistical analyses compared to 0 input of BSA/helix 5 peptide. F) Peptide-pulldown of GC constructs overexpressed in N2a cells with subsequent Western blot analysis (α-hGC) utilizing helix 5 and the 3×D control peptide as a negative binding control. G) Densitometry of GC protein bound to peptides; each construct is normalized to buffer only. H) Live-cell lysosomal GC activity of H4 cells after uptake of helix 5 and 3×D TAT peptides. GC activity was measures every 30 minutes up to 3.5 hours. Cells were treated with DMSO or the “lysosomal inhibitor” bafilomycinA1. […] Lysosomal activity is calculated by subtracting the AUC of DMSO with the AUC of bafilomycinA1 treated samples (n=4). […] GC activity was measured from 16-74 hours and is shown in mU/mg (n=3). […]

[3] = biological target: T1, recombinant GC (Cerezyme); assay: recombinant GC activity assay; format: biochemical; conditions: tenfold molar excess of peptide, acid pH, relative to buffer control
Method: as §1
To determine the enzymatic activity of the recombinant enzymes, lyophilized enzymes were reconstituted in the NaPi buffer described above. The lyophilized samples of wild-type GC (Cerezyme®) and the custom-made recombinant N307S mutant enzyme contain 0.01% polysorbate 80 (Tween 80) (see prescription information for Cerezyme® at the website for Cerezyme®). As indicated in our experiments, the concentration of the detergent is sufficient to support active GC enzyme and to perform the in vitro GC activity assays without adding further detergents to the reaction mix. For enzyme activity assays of recombinant proteins, 0.1-0.2 nmol of GC (Cerezyme®; N370S) and LAMAN were used in the absence or presence of 10× the molar amount of LIMP-2-derived peptides (Table 1) or LIMP-2 ectodomain (1-2 nmol) (Table 3).
All activity assays were performed at acid pH.

Sequence of bovine serum albumin (BSA) (P02769 25-607): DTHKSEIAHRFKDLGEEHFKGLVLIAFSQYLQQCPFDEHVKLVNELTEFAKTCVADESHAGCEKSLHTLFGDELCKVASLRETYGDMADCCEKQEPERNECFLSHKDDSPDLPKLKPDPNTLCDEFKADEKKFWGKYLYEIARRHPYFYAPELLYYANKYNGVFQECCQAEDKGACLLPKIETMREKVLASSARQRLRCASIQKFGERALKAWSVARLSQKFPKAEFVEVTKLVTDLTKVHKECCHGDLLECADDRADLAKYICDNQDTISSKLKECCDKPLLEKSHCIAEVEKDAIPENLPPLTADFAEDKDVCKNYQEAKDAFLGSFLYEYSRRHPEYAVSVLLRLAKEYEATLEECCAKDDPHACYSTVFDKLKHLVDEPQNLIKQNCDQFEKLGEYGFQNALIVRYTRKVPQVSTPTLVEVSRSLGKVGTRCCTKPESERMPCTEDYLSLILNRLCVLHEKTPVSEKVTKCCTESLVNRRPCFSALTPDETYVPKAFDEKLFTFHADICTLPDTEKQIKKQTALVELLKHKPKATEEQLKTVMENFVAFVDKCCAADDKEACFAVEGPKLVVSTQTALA

Substance: Biotin-Ttds-LREIIEAMLKAYQQKLFVTHTVDE [helix 5 peptide]
- co-precipitation of recombinant GC [1]: specifically co-precipitated
- interaction with albumin (BSA) [2]: no interaction
- increase of recombinant GC enzyme activity [3]: five times
- increase of recombinant GC enzyme activity ([3]; listed as LIMP-2-derived helix 5 peptide): five-fold increase

Substance: Biotin-Ttds-KFERQLREIIEAMLKAYQQKLFVTHTVDEYGRKKRRQRRR [helix 5 TAT-peptide]
- increase of recombinant GC enzyme activity [3]: comparable effect
